In paper PMC8179358, “An explicitly designed paratope of amyloid-β prevents neuronal apoptosis in vitro and hippocampal damage in rat brain” (Chemical Science, 2020):
*1 amine or outer side, *2 acyl side, *3 side chain or, on linkers, in order; H or OH if unused. Where a SMILES comes first, the peptide text is derived from it. Bridges are numbered along the chain shown (N, C = ends). Roman numbers before positions name the chains, in order. [ ]: non-standard residue; d: D form. X1 = O=C(CCCCC(=O)[*:2])NCCCOCCOCCOCCCNC(=O)CCC(=O)[*:1]; NMeF = CN[C@@H](Cc1ccccc1)C(=O)O; NMeL = CN[C@@H](CC(C)C)C(=O)O; NMeV = CN[C@H](C(=O)O)C(C)C

Assays:
[1] = molecular target: T1, Aβ40 (Homo sapiens, UniProt P05067); test: Thioflavin T assay, inhibition of Aβ40 amyloid formation; type: biochemical; settings: ThT assay; Aβ40 50 μM; 5-fold molar excess; PBS 50 mM pH 7.4, 3% DMSO, 37 °C
T1 construct: 15N labeled (a) Aβ40 (80 μM)
T1 sequence (P05067 672-711 limits assumed): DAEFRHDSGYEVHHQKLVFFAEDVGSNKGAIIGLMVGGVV
Method: First, we monitored the kinetics of the amyloid formation of Aβ40 (50 μM) by thioflavin T (ThT) assay (Fig. 2a and b). The Aβ40 peptide alone aggregated with time, with a growth saturation point around 72 h, as evident from the surge in ThT fluorescence intensity. […] Green-gold birefringence appears to be a standard result of Aβ40 aggregation under cross-polarized light post-staining with Congo red dye. Owing to amyloid formation, Aβ40 appears as green-gold birefringence (Fig. 2d) under cross-polarized light when stained with Congo red.
400μL of the sample was taken in a cuvette of 1mm path length. Three measurements were accumulated.
Spectra were recorded from 190nm to 260nm on a JASCO J-1500 instrument. […]
1.5 mg of commercially available Aβ40 peptide was taken and disaggregated by TFA (50μ L) and evaporated under nitrogen gas. […] To obtain precise results, two more replicate solutions of each portion were prepared (total number of samples for this experiment was 27), and fibrillization was monitored by various biophysical tools. […]
b. Thioflavin T Fluorescence Assay
A stock solution of Thioflavin T (ThT) of concentration 50μM in PBS (50mM, pH 7.4) was prepared and stored at 4 °C with the proper protection to prevent degradation from light. […] For fluorescence studies, 40μLof peptide sample was mixed with 200μL of ThT solution (50μM), and the total volume was made up to 400μL using PBS. […]

[2] = system: SH-SY5Y cells; test: LDH release assay, Aβ40 induced membrane damage; type: cell-based, human; settings: Aβ40 10 μM, 24 h
Method: Then, we explored the membrane damage induced by Aβ40 (ref. [45] and [46]) using the lactate dehydrogenase (LDH) assay.
The release of cytosolic enzyme lactate dehydrogenase (LDH) into the culture medium indicates cell death due to the disruption of membrane integrity. Cell deathwas assessed by measuring LDH release in the culture medium by photocolorimetric kit according to the manufacturer’s protocol (Abcam, Cambridge, MA, USA). An increase in the number of lysed cell increases LDH activity in the culture medium proportionately. […]
Next, 50 µl culture supernatant was collected from each well and added to an assay mixture that was prepared by adding an equal amount of LDH substrate, co-factors, and dye solutions and incubated in the dark for 40mins at 37°C. […] Absorbance was measured at 490 nm with a reference filter of 660nm. […]
Generation of intracellular reactive oxygen species was measured by a spectrofluorimetric method using peroxide sensitive fluorescent probe 2′,7′-Dichlorofluorescin diacetate (DCFH-DA).11 In brief, SH-SY5Y […]
or both for 24h. […] Cells were then washed twice with PBS, and fluorescent intensity was measured by using a fluorescence microplate reader (Bio Rad, CA, USA) with an excitation filter of 490 nm and an emission filter of 520 nm.

With `CC(C)C[C@H](NC(=O)CNC(=O)CCC(=O)NCCCOCCOCCOCCCNC(=O)CCCCC(=O)NCC(=O)N(C)[C@@H](CC(C)C)C(=O)N[C@H](C(=O)N(C)[C@@H](Cc1ccccc1)C(=O)N[C@@H](Cc1ccccc1)C(=O)N[C@@H](C)C(N)=O)C(C)C)C(=O)N(C)[C@H](C(=O)N[C@@H](Cc1ccccc1)C(=O)N(C)[C@@H](Cc1ccccc1)C(=O)N[C@@H](C)C(N)=O)C(C)C` [SP1] (I: GL[NMeV]F[NMeF]A-NH2 / II: G[NMeL]V[NMeF]FA-NH2; linker I:N-II:N via X1) the “inhibition of Aβ40 amyloid formation” value [1] was ~66%.
“Aβ40: commercially available Aβ40 peptide” was tested, and the “LDH release by Aβ40 alone” value [2] was “released a significant amount of cytosolic LDH”.
